Source: patent US9695192B2, “Fused heterocyclic compounds as ion channel modulators” (GILEAD SCIENCES, INC., priority 2011, dated 2017)

biological target: wild-type human cardiac sodium channel, hNav1.5 (Homo sapiens, UniProt Q14524); test: Late INa screening assay (QPatch whole cell patch clamp, tefluthrin-enhanced late sodium current); format: cell-based; conditions: HEK293 hNav1.5, late INa activated with 10 μM Tefluthrin
Experimental: The late sodium current (Late INa) and peak sodium current (Peak INa) assays are performed on an automated electrophysiology platform, QPatch 16X (Sophion Bioscience, Copenhagen, Denmark), which uses the whole cell patch clamp technique to measure currents through the cell membrane of up to 16 cells at a time. The assay uses an HEK293 (human embryonic kidney) cell line heterologously expressing the wild-type human cardiac sodium channel, hNav1.5, purchased from Millipore (Billerica, Mass.). No beta subunits were coexpressed with the Na channel alpha subunit. Cells are maintained with standard tissue culture procedures and stable channel expression is maintained with 400 μg/mL Geneticin in the culture medium. Cells isolated for use on QPatch are incubated for 5 minutes in Detachin 1X (Genlantis, San Diego, USA) at 37° C. to ensure that 80-90% of the cells are single and not part of a cell cluster. Experiments are carried out at 23-25° C.
For both the Late INa and Peak INa assays, series resistance compensation is set to 100% and series resistance and whole-cell compensation are performed automatically. Currents are digitized at 25 kHz and low-pass filtered at 12 kHz and 10 kHz for the late and peak INa assays, respectively. Currents through open sodium channels are automatically recorded and stored in the Sophion Bioscience Oracle database (Sophion Bioscience, Copenhagen, Denmark). Analysis is performed using QPatch Assay and database software and data are compiled in Excel.
Compound stocks are routinely made by the Gilead Sample Bank in plastic vials to 10 mM in dimethyl sulfoxide (DMSO). In some cases, when compounds are not soluble in DMSO, they are made in 100% ethanol. Stocks are sonicated as necessary. The extracellular solution for screening Late INa is composed of: 140 mM NaCl, 4 mM KCl, 1.8 mM CaCl2, 0.75 mM MgCl2 and 5 mM HEPES with pH adjusted to 7.4 using NaOH. The intracellular solution used to perfuse the inside of the cells for both the Late INa and Peak INa assays contains: 120 mM CsF, 20 mM CsCl, 5 mM EGTA, 5 mM HEPES and pH adjusted to 7.4 with CsOH. Compounds are diluted in extracellular solution to 1 μM in glass vials and then transferred to glass well plates before robotic addition to the cells. A 0 mM Na extracellular solution (0 Na-ECF) is used at the end of each experiment for the Late INa and Peak INa assays to measure baseline current contains: 140 mM N-methyl-D-glucamine; 4 mM KCl; 1.8 mM CaCl2; 0.75 mM MgCl2; 5 mM HEPES and pH was adjusted to 7.4 with HCl.
For the hNav1.5 Late INa assay, sodium channels are activated every 10 seconds (0.1 Hz) by depolarizing the cell membrane to −20 mV for 250 milliseconds (ms) from a holding potential of −120 mV. In response to a −20 mV voltage step, typical hNav1.5 sodium currents activate rapidly to a peak negative current and then inactivate nearly completely within 3-4 ms.
Compounds were tested to determine their activity in blocking the late sodium current. Late INa was generated by adding 10 μM Tefluthrin (pyrethroid) to the extracellular solution while recording Na currents. To confirm the block of late INa observed using the automated screening method, a second late INa enhancer (ATX-II) and the manual patch clamp method were used. ATX-II and tefluthrin occupy distinct, non-overlapping binding sites and modify Na^+ channel function differently to increase late INa. Compounds tested have been found generally to inhibit the enhanced late INa caused by either late INa enhancer. For the purposes of the screening, late INa is defined as the mean current between 225 ms and 250 ms after stepping to −20 mV to activate Na channels. After establishing the whole cell recording configuration, late INa activator is added to each well 4 times over a 16-17 minute period so that the late component of the Na current reaches a stable value. Compounds were then added (typically at 1 μM), in the presence of the late INa activator, with 3 additions over the course of 7 or 8 minutes. […]

Chain of wild-type human cardiac sodium channel, hNav1.5 (Q14524 whole entry): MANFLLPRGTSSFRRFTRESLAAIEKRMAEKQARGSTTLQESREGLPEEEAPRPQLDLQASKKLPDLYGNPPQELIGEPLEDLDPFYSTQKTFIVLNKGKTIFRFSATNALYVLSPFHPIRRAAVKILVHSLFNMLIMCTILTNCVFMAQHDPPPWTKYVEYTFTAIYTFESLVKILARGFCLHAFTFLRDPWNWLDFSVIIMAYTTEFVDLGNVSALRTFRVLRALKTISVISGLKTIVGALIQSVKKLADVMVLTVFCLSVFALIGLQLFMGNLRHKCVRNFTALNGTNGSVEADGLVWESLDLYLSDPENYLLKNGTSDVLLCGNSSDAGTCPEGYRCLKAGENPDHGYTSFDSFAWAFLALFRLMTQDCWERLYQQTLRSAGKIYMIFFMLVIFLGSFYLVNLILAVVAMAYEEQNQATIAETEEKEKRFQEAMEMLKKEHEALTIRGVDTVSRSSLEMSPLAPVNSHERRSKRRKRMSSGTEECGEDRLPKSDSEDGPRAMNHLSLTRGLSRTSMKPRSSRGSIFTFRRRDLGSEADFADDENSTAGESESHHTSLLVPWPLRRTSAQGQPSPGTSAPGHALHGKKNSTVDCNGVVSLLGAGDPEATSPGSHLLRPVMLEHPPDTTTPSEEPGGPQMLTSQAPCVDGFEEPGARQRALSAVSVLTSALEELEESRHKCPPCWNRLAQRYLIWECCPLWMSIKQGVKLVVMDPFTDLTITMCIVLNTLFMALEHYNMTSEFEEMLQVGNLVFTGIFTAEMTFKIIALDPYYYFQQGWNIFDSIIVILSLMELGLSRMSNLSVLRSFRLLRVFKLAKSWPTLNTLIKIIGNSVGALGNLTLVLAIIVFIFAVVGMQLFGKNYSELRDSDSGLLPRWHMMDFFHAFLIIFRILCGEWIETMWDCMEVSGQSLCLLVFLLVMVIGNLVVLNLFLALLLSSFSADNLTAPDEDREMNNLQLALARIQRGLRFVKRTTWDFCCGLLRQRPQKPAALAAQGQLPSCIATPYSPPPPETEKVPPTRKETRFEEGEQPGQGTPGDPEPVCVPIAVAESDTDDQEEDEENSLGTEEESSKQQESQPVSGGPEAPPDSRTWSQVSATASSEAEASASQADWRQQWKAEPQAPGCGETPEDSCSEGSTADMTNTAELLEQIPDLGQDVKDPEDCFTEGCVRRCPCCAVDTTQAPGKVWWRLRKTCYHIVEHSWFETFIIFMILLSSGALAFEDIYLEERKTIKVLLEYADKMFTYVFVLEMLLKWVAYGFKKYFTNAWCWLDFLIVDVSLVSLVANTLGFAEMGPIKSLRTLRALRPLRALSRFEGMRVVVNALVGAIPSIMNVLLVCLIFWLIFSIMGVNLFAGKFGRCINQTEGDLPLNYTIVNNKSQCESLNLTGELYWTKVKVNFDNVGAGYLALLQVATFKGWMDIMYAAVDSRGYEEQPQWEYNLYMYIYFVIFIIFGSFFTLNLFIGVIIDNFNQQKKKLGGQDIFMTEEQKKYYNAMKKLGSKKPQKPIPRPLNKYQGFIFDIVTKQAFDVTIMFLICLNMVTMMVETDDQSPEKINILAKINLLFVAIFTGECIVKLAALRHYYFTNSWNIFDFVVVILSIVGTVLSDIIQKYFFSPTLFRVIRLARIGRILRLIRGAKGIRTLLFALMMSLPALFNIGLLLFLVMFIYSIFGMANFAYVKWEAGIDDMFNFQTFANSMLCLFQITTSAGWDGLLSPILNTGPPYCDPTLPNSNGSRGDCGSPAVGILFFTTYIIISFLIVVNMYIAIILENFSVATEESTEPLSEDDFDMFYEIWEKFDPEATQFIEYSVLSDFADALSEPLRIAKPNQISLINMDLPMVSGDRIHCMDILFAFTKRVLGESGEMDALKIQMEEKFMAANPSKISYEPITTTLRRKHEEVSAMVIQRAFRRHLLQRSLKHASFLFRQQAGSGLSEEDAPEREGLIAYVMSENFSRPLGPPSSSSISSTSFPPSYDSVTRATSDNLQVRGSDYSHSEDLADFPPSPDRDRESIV

First: FC(F)(F)c1ccc(-c2ccc3c(c2)C(Nc2ccccn2)=NCCO3)cc1 [II-19, N-(pyridin-2-yl)-7-(4-(trifluoromethyl)phenyl)-2,3-dihydrobenzo[f][1,4]oxazepin-5-amine]
Second: FC(F)(F)c1ccc(-c2ccc3c(c2)C(Nc2ccccc2)=NCCO3)cc1 [II-32, N-phenyl-7-(4-(trifluoromethyl)phenyl)-2,3-dihydrobenzo[f][1,4]oxazepin-5-amine]
The inhibition at 1 µM of the first is higher: 43% for the first, 26% for the second.

Compared with `FC1(F)CCN(C2=NCCOc3ccc(-c4ccc(C(F)(F)F)cc4)cc32)CC1` [II-21, 5-(4,4-difluoropiperidin-1-yl)-7-(4-(trifluoromethyl)phenyl)-2,3-dihydrobenzo[f][1,4]oxazepine], `FC(F)(F)c1ccc(-c2ccc3c(c2)C(N2CCN(C4CC4)CC2)=NCCO3)cc1` [II-31, 5-(4-cyclopropylpiperazin-1-yl)-7-(4-(trifluoromethyl)phenyl)-2,3-dihydrobenzo[f][1,4]oxazepine] is higher in inhibition at 1 µM: 13% for the first, 24% for the second.

Going from `OC1CCN(C2=NCCOc3ccc(-c4ccc(C(F)(F)F)cc4)cc32)C1` (centres unmarked) [II-23, 1-(7-(4-(trifluoromethyl)phenyl)-2,3-dihydrobenzo[f][1,4]oxazepin-5-yl)pyrrolidin-3-ol] to `N[C@@H]1CCN(C2=NCCOc3ccc(-c4ccc(C(F)(F)F)cc4)cc32)C1` [II-41, (R)-1-(7-(4-(trifluoromethyl)phenyl)-2,3-dihydrobenzo[f][1,4]oxazepin-5-yl)pyrrolidin-3-amine], the inhibition at 1 µM falls from 9% to 6%.

Going from `FC(F)(F)c1ccc(-c2ccc3c(c2)C(NCCOc2ccccc2Cl)=NCCO3)cc1` [II-24, N-(2-(2-chlorophenoxy)ethyl)-7-(4-(trifluoromethyl)phenyl)-2,3-dihydrobenzo[f][1,4]oxazepin-5-amine] to `Cn1c(CNC2=NCCOc3ccc(-c4ccc(C(F)(F)F)cc4)cc32)nc2ccccc21` [II-33, N-((1-methyl-1H-benzo[d]imidazol-2-yl)methyl)-7-(4-(trifluoromethyl)phenyl)-2,3-dihydrobenzo[f][1,4]oxazepin-5-amine], the inhibition at 1 µM rises from 26% to 34%.

Compared with `FC(F)(F)c1ccc(-c2ccc3c(c2)C(NCc2cccc(C(F)(F)F)n2)=NCCO3)cc1` [II-25, 7-(4-(trifluoromethyl)phenyl)-N-((6-(trifluoromethyl)pyridin-2-yl)methyl)-2,3-dihydrobenzo[f][1,4]oxazepin-5-amine], `FC(F)(F)c1ccc(-c2ccc3c(c2)C(Nc2cccc(C(F)(F)F)n2)=NCCO3)cc1` [II-27, 7-(4-(trifluoromethyl)phenyl)-N-(6-(trifluoromethyl)pyridin-2-yl)-2,3-dihydrobenzo[f][1,4]oxazepin-5-amine] is lower in inhibition at 1 µM: 20% for the first, 1% for the second.

Going from `FC(F)(F)c1ccc(-c2ccc3c(c2)C(Nc2nnn[nH]2)=NCCO3)cc1` [II-26, N-(1H-tetrazol-5-yl)-7-(4-(trifluoromethyl)phenyl)-2,3-dihydrobenzo[f][1,4]oxazepin-5-amine] to `FC(F)(F)CNC1=NCCOc2ccc(-c3ccc(C(F)(F)F)cc3)cc21` [II-29, N-(2,2,2-trifluoroethyl)-7-(4-(trifluoromethyl)phenyl)-2,3-dihydrobenzo[f][1,4]oxazepin-5-amine], the inhibition at 1 µM falls from 14% to 7%.

Going from `O=C1CCCN1C1=NCCOc2ccc(-c3ccc(C(F)(F)F)cc3)cc21` [II-30, 1-(7-(4-(trifluoromethyl)phenyl)-2,3-dihydrobenzo[f][1,4]oxazepin-5-yl)pyrrolidin-2-one] to `O=C1CCCN1C1CCN(C2=NCCOc3ccc(-c4ccc(C(F)(F)F)cc4)cc32)CC1` [II-42, 1-(1-(7-(4-(trifluoromethyl)phenyl)-2,3-dihydrobenzo[f][1,4]oxazepin-5-yl)piperidin-4-yl)pyrrolidin-2-one], the inhibition at 1 µM falls from 10% to 9%.

Going from `FC(F)(F)c1ccc(-c2ccc3c(c2)C(NC2CCN(Cc4ncccn4)C2)=NCCO3)cc1` (centres unmarked) [II-34, N-(1-(pyrimidin-2-ylmethyl)pyrrolidin-3-yl)-7-(4-(trifluoromethyl)phenyl)-2,3-dihydrobenzo[f][1,4]oxazepin-5-amine] to `O=C(c1ncccn1)N1CCC(NC2=NCCOc3ccc(-c4ccc(C(F)(F)F)cc4)cc32)C1` (centres unmarked) [II-35, pyrimidin-2-yl(3-(7-(4-(trifluoromethyl)phenyl)-2,3-dihydrobenzo[f][1,4]oxazepin-5-ylamino)pyrrolidin-1-yl)methanone], the inhibition at 1 µM rises from 3% to 4%.

Compared with `FC(F)(F)c1ccc(-c2ccc3c(c2)C(N2CCC(N4CCCC4)C2)=NCCO3)cc1` (centres unmarked) [II-36, 5-(1,3′-bipyrrolidin-1′-yl)-7-(4-(trifluoromethyl)phenyl)-2,3-dihydrobenzo[f][1,4]oxazepine], `CN[C@@H]1CCN(C2=NCCOc3ccc(-c4ccc(C(F)(F)F)cc4)cc32)C1` [II-39, (R)—N-methyl-1-(7-(4-(trifluoromethyl)phenyl)-2,3-dihydrobenzo[f][1,4]oxazepin-5-yl)pyrrolidin-3-amine] is higher in inhibition at 1 µM: 7% for the first, 26% for the second.

Going from `FC(F)(F)c1ccc(-c2ccc3c(c2)C(N2CCC(NCc4ncccn4)C2)=NCCO3)cc1` (centres unmarked) [II-37, N-(pyrimidin-2-ylmethyl)-1-(7-(4-(trifluoromethyl)phenyl)-2,3-dihydrobenzo[f][1,4]oxazepin-5-yl)pyrrolidin-3-amine] to `O=C(N[C@H]1CCN(C2=NCCOc3ccc(-c4ccc(C(F)(F)F)cc4)cc32)C1)c1ncccn1` [II-45, (S)—N-(1-(7-(4-(trifluoromethyl)phenyl)-2,3-dihydrobenzo[f][1,4]oxazepin-5-yl)pyrrolidin-3-yl)pyrimidine-2-carboxamide], the inhibition at 1 µM falls from 20% to 6%.

`CN(C(=O)OC(C)(C)C)[C@@H]1CCN(C2=NCCOc3ccc(-c4ccc(C(F)(F)F)cc4)cc32)C1` [II-38, (R)-tert-butyl methyl(1-(7-(4-(trifluoromethyl)phenyl)-2,3-dihydrobenzo[f][1,4]oxazepin-5-yl)pyrrolidin-3-yl)carbamate] and `CN(C(=O)OC(C)(C)C)[C@H]1CCN(C2=NCCOc3ccc(-c4ccc(C(F)(F)F)cc4)cc32)C1` [II-40, (S)-tert-butyl methyl(1-(7-(4-(trifluoromethyl)phenyl)-2,3-dihydrobenzo[f][1,4]oxazepin-5-yl)pyrrolidin-3-yl)carbamate] are the same in inhibition at 1 µM: 18% for the first, 18% for the second.

First: CN[C@H]1CCN(C2=NCCOc3ccc(-c4ccc(C(F)(F)F)cc4)cc32)C1 [II-44, (S)—N-methyl-1-(7-(4-(trifluoromethyl)phenyl)-2,3-dihydrobenzo[f][1,4]oxazepin-5-yl)pyrrolidin-3-amine]
Second: CCN(CC)[C@H]1CCN(C2=NCCOc3ccc(-c4ccc(C(F)(F)F)cc4)cc32)C1 [II-48, (S)—N,N-diethyl-1-(7-(4-(trifluoromethyl)phenyl)-2,3-dihydrobenzo[f][1,4]oxazepin-5-yl)pyrrolidin-3-amine]
The inhibition at 1 µM of the first is lower: 9% for the first, 24% for the second.

Going from `O=C(N[C@@H]1CCN(C2=NCCOc3ccc(-c4ccc(C(F)(F)F)cc4)cc32)C1)c1ncccn1` [II-46, (R)—N-(1-(7-(4-(trifluoromethyl)phenyl)-2,3-dihydrobenzo[f][1,4]oxazepin-5-yl)pyrrolidin-3-yl)pyrimidine-2-carboxamide] to `O=C(N[C@@H]1CCN(C2=NCCOc3ccc(-c4ccc(C(F)(F)F)cc4)cc32)C1)c1ccccn1` [II-47, (R)—N-(1-(7-(4-(trifluoromethyl)phenyl)-2,3-dihydrobenzo[f][1,4]oxazepin-5-yl)pyrrolidin-3-yl)picolinamide], the inhibition at 1 µM rises from 4% to 18%.
